Drawing on patent publication US20130253179A1, “Functionalization Processes and Reactants Used in Such Processes Using an Isatoic Anhydride or a Derivative Thereof, Biological Molecules Thus Treated and Kits” (priority 2010, published 2013), this text covers DoL for one compound.

In the test the test system is in vitro RNA transcripts (IVT). The experiment in a line: Functionalisation of in vitro RNA transcripts, Cy3 and RNA assay, DoL (Degree of Labelling). It is filed as biochemical, human. Here is the method:
The in vitro transcripts are generated in the same way as described in example 8. In this example, we have used four concentrations of functionalisation molecule Cy3 IA Me (13) in order to determine the most appropriate concentration for detection of the most sensitive functionalised IVTs.
6 μg of in vitro transcripts are taken up in a total volume of 20 μL of a 10 mM solution of Zn(OAc)2 pH 6.5. The solution is incubated for 15 min at 70° C. in order to partially fragment the RNA until a majority of fragments are obtained which are of a size between 25 and 200 bases. After this incubation, the solution is immediately put into ice.
11 μL of the transcript solution is mixed with 4 μL of a 500 mM solution of NaHCO3 pH 8-8.5, and with 5 μL of a 120, 240, 360 or 480 mM solution of Cy3 IA Me (13) in DMSO, to obtain 30, 60, 90 or 120 mM solutions of functionalisation reagent, respectively. These solutions are incubated at 65° C. for one hour.
The excess of functionalisation reagent as well as that of the different salts are eliminated by isopropanol precipitation then by acetone precipitation. To do this, 6 μL of 3M sodium acetate (i.e. 30% by volume) and 14 μL of isopropanol (i.e. 70% by volume) are added to the functionalisation solution. Vortex stirring is performed and centrifuging is performed for 30 mins at 14,000 rpm (20,800 g) at 4° C. The supernatant is eliminated and then the pellet is rinsed with 50 μL of 70% ethanol. Centrifuging is carried out again for 15 mins at 14,000 rpm (20,800 g) at 4° C., and the supernatant is eliminated.
280 μL of water, 18 μL of 3M LiClO4 and 900 μL of acetone are added to the pellet. Vortex stirring is performed, centrifuging is performed and the supernatant is eliminated. Next, 280 μL of water, 18 μL of 3M LiClO4 and 900 μL of acetone are added to the pellet. Vortex stirring is performed, centrifuging is performed and the supernatant is eliminated. The pellet is rinsed with 50 μL of 70% ethanol and then centrifuging is carried out for 15 mins at 14,000 rpm (20,800 g) at 4° C. The supernatant is eliminated, and the pellet is dried under vacuum with the rotary evaporator before the pellet is taken up in 20 μL of water (i.e. [in vitro transcripts]theoretical=[…]).
In order to determine the quantity of functionalised in vitro transcripts recovered after these different treatments, 1.2 μl of each end solution are assayed by UV spectrophotometry at 260 nm (Nanodrop 100, Thermo Scientific Waltham, USA). An assay is also carried out at 550 nm in order to learn the Cy3 functionalisation rate of the in vitro transcripts (% of Cy3 molecules per 100 nucleosides). This value is also known under the name DoL (Degree of Labelling) and is calculated with the following equation: DoL (in %)=100×(340×[Cy3])/(1000×[RNA]). […]

`CCN1/C(=C\C=C\C2=[N+](CCCCCC(=O)Nc3ccc4c(c3)c(=O)oc(=O)n4C)c3ccc(S(=O)(=O)[O-])cc3C2(C)C)C(C)(C)c2cc(S(=O)(=O)[O-])ccc21.[K+]` [Cy3 IA Me 13, 1-methyl 5-Cy3-isatoic anhydride] came in with a DoL (30 mM compound in the solution) of 0.8%, a DoL (60 mM compound in the solution) of 1.7%, a DoL (90 mM compound in the solution) of 2% and a DoL (120 mM compound in the solution) of 2.7%.
